Test results: publication PMC6270209, “Synthesis, Antimycobacterial Activity and In Vitro Cytotoxicity of 5-Chloro-N-phenylpyrazine-2-carboxamides” (Molecules, 2013)
Converted amounts (≈) assume the structure as drawn. Where two headings read alike, the source gives them in different places.

Columns and labels:
[1] = tested on: M. tuberculosis H37Rv CNCTC My 331/88; experiment: In vitro antimycobacterial activity, microdilution panel method (MIC); type: cell-based, Mycobacterium tuberculosis; settings: for MIC: Mycobacterium tuberculosis, H37RV
[2] = tested on: M. avium CNCTC My 152/73; experiment: as above; type: cell-based, Mycobacterium avium; settings: for MIC: Mycobacterium avium
[3] = tested on: M. kansasii Hauduroy CNCTC My 235/80; experiment: as above; type: cell-based, Mycobacterium kansasii; settings: for MIC: Mycobacterium kansasii; for MIC / Antimycobacterial activity MIC, M. kansasii: M. kansasii Hauduroy CNCTC My 235/80
[4] = tested on: M. avium ssp. avium Chester CNCTC My 80/72; experiment: as above; type: cell-based, Mycobacterium avium; settings: for MIC: Mycobacterium avium
[5] = tested on: HepG2 cells; settings: for IC50: read-out: Cytotoxicity IC50, HepG2 cells, 24 h incubation (Table 1)
[6] = in vitro; settings: human
[7] = RP-HPLC, C18, MeOH 70% / H2O 30%, 30 °C
[8] = pH 5.6, M. tuberculosis H37Rv, primary test, dilution scale 100–[…], Šula's medium pH 5.6, read-out: Antimycobacterial activity MIC, M. tbc
[9] = SI calculated for M. tbc as IC50 (HepG2)/MIC (in μM) using the lower MIC values (Table 1)
[10] = M. tuberculosis H37Rv, primary test, dilution scale 100–[…], Šula's medium pH 5.6
[11] = M. tuberculosis H37Rv, retest with extended dilution scale up to 0.39 µg/mL, read-out: Antimycobacterial activity MIC, M. tbc (confirmation retest, value in parentheses)
[12] = M. tuberculosis H37Rv, retest with extended dilution scale up to 0.39 µg/mL

Structure (SMILES) | MIC [1, 8] [µg/mL] | MIC [2] [µg/mL] | MIC [3] [µg/mL] | MIC [4] [µg/mL] | IC50 [6] [µM] | Cytotoxicity SI [5, 9] | MIC [1, 11] [µg/mL] | also measured
NC(=O)c1cnccn1 [PZA, pyrazinamide, reference compound] | 6.25 to 12.5 | > 100 | > 100 | > 100 | > 10000 |  |  | MIC ([1]; read-out: M. tbc H37Rv MIC (µM), MIC converted to molar concentrations): 51 to 102 µM; Cytotoxicity SI ([5]; human): >196; Lipophilicity logk [7]: −0.687
CC(C)c1ccc(NC(=O)c2cnc(Cl)cn2)cc1 [Compound 8, 5-Chloro-N-(4-isopropylphenyl)pyrazine-2-carboxamide] | 1.56 | > 100 |  | > 100 | 14.4 | 2.55 |  | 
O=C(Nc1cccc(Br)c1)c1cnc(Cl)cn1 [Compound 16, 5-Chloro-N-(3-bromophenyl)pyrazine-2-carboxamide] | 25 | > 100 | 25 (≈ 80 µM) | > 100 |  |  |  | 
O=C(Nc1ccc(Cl)c(Cl)c1)c1cnc(Cl)cn1 [Compound 14, 5-Chloro-N-(3,4-dichlorophenyl)pyrazine-2-carboxamide] | 3.13 | > 100 | > 100 | > 100 | 9.1 | 0.88 |  | 
O=C(Nc1cccc([N+](=O)[O-])c1)c1cnc(Cl)cn1 [Compound 25] |  |  |  |  |  | 2.91 |  | Antimycobacterial activity MIC, M. tbc [1, 10]: 3.13 µg/mL; Antimycobacterial activity MIC, M. avium [2]: >100 µg/mL; Antimycobacterial activity MIC, M. avium [4]: >100 µg/mL; IC50 [5]: 32.7 µM; Lipophilicity logk [7]: 0.344
O=C(Nc1cccc(O)c1)c1cnc(Cl)cn1 [Compound 3, 5-Chloro-N-(3-hydroxyphenyl)pyrazine-2-carboxamide] | 6.25 | 100 (≈ 401 µM) | 50 (≈ 200 µM) | > 100 | 32.1 | 1.28 |  | Activity against M. kansasii (in words) [3]: inactive
O=C(Nc1ccccc1F)c1cnc(Cl)cn1 [Compound 9] |  |  |  |  |  |  |  | Antimycobacterial activity MIC, M. tbc [1, 10]: 6.25 µg/mL; Antimycobacterial activity MIC, M. avium [2]: >100 µg/mL; Antimycobacterial activity MIC, M. kansasii [3]: 12.5 µg/mL; Antimycobacterial activity MIC, M. avium [4]: >100 µg/mL; Lipophilicity logk [7]: 0.490
O=C(Nc1ccccc1[N+](=O)[O-])c1cnc(Cl)cn1 [Compound 24, 5-Chloro-N-(2-nitrophenyl)pyrazine-2-carboxamide] | 12.5 | > 100 |  | > 100 |  |  |  | 
O=C(Nc1cccc(C(F)(F)F)c1)c1cnc(Cl)cn1 [Compound 28, 5-Chloro-N-(3-(trifluoromethyl)phenyl)pyrazine-2-carboxamide] | 3.13 | > 100 | 12.5 (≈ 41.4 µM) | > 100 | 41.4 | 3.99 | 6.25 | 
CCc1ccc(NC(=O)c2cnc(Cl)cn2)cc1 [Compound 7, 5-Chloro-N-(4-ethylphenyl)pyrazine-2-carboxamide] | 1.56 | > 100 |  | > 100 | 7.17 | 2.41 | 0.78 | 
Cc1ccc(F)cc1NC(=O)c1cnc(Cl)cn1 [Compound 19, 5-Chloro-N-(5-fluoro-2-methylphenyl)pyrazine-2-carboxamide] | 3.13 | > 100 | 25 (≈ 94.1 µM) | > 100 |  |  | 6.25 | 
O=C(Nc1cc([N+](=O)[O-])ccc1O)c1cnc(Cl)cn1 [Compound 23, 5-Chloro-N-(2-hydroxy-5-nitrophenyl)pyrazine-2-carboxamide] | 1.56 | 50 (≈ 170 µM) |  | 50 (≈ 170 µM) | 1.52 | 0.29 | 1.56 | 
O=C(Nc1ccc(O)c(Cl)c1)c1cnc(Cl)cn1 [Compound 22, 5-Chloro-N-(3-chloro-4-hydroxyphenyl)pyrazine-2-carboxamide] | 3.13 | 25 (≈ 88 µM) | > 100 | 50 (≈ 176 µM) | 12.9 | 1.17 | 0.39 | 
N#Cc1ccc(NC(=O)c2cnc(Cl)cn2)cc1 [Compound 27, 5-Chloro-N-(4-cyanophenyl)pyrazine-2-carboxamide] | > 100 | > 100 | > 100 | > 100 |  |  |  | Antimycobacterial activity against M. tbc H37Rv (in words) [1]: inactive
O=C(Nc1cccc(F)c1)c1cnc(Cl)cn1 [Compound 10, 5-Chloro-N-(3-fluorophenyl)pyrazine-2-carboxamide] | 6.25 | > 100 | 12.5 (≈ 49.7 µM) | > 100 |  |  |  | 
O=C(Nc1ccc(C(F)(F)F)cc1)c1cnc(Cl)cn1 [Compound 29, 5-Chloro-N-(4-(trifluoromethyl)phenyl)pyrazine-2-carboxamide] | 1.56 | > 100 | 12.5 (≈ 41.4 µM) | > 100 | 8.5 | 1.64 | 3.13 | 
O=C(Nc1ccc(F)cc1F)c1cnc(Cl)cn1 [Compound 11, 5-Chloro-N-(2,4-difluorophenyl)pyrazine-2-carboxamide] | 3.13 | > 50 | 6.25 (≈ 23.2 µM) | > 50 |  |  |  | 
O=C(Nc1ccccc1O)c1cnc(Cl)cn1 [Compound 2, 5-Chloro-N-(2-hydroxyphenyl)pyrazine-2-carboxamide] | 3.13 | > 100 |  | > 100 | 30 | 2.39 | 0.78 | 
N#Cc1cccc(NC(=O)c2cnc(Cl)cn2)c1 [Compound 26, 5-Chloro-N-(3-cyanophenyl)pyrazine-2-carboxamide] | 25 | > 50 | 3.13 (≈ 12.1 µM) | > 50 |  |  |  | Antimycobacterial activity against M. tbc H37Rv (in words) [1]: low activity; Antimycobacterial activity MIC, M. kansasii [3]: ≤ 6.25 µg/mL
Cc1ccc(C)c(NC(=O)c2cnc(Cl)cn2)c1 [Compound 6, 5-Chloro-N-(2,5-dimethylphenyl)pyrazine-2-carboxamide] | 1.56 | > 100 | > 100 | > 100 | 11.7 | 1.96 | 1.56 | 
O=C(Nc1ccc(Br)cc1)c1cnc(Cl)cn1 [Compound 17] |  |  |  |  |  |  |  | Antimycobacterial activity MIC, M. tbc [1, 10]: 3.13 µg/mL; Antimycobacterial activity MIC, M. avium [2]: >100 µg/mL; Antimycobacterial activity MIC, M. kansasii [3]: 6.25 µg/mL; Antimycobacterial activity MIC, M. avium [4]: >100 µg/mL; Lipophilicity logk [7]: 0.660
O=C(Nc1cccc(Cl)c1)c1cnc(Cl)cn1 [Compound 13] |  |  |  |  |  |  |  | Antimycobacterial activity MIC, M. tbc [1, 10]: 6.25 µg/mL; Antimycobacterial activity MIC, M. tbc (confirmation retest, value in parentheses) [1, 12]: 3.13 µg/mL; Antimycobacterial activity MIC, M. avium [2]: 25 µg/mL; Antimycobacterial activity MIC, M. kansasii [3]: 25 µg/mL; Antimycobacterial activity MIC, M. avium [4]: 25 µg/mL; Lipophilicity logk [7]: 0.587
O=C(Nc1ccccc1Cl)c1cnc(Cl)cn1 [Compound 12] |  |  |  |  |  | 0.58 |  | Antimycobacterial activity MIC, M. tbc [1, 10]: 3.13 µg/mL; Antimycobacterial activity MIC, M. tbc (confirmation retest, value in parentheses) [1, 12]: 0.78 µg/mL; Antimycobacterial activity MIC, M. avium [2]: >100 µg/mL; Antimycobacterial activity MIC, M. avium [4]: >100 µg/mL; IC50 [5]: 6.72 µM; Lipophilicity logk [7]: 0.819
Cc1ccc(Cl)c(NC(=O)c2cnc(Cl)cn2)c1 [Compound 20, 5-Chloro-N-(2-chloro-5-methylphenyl)pyrazine-2-carboxamide] | 1.56 | > 100 | 25 (≈ 88.6 µM) | > 100 | 15.8 | 2.86 |  | 
